{"source": "ChEMBL document CHEMBL2073914", "about": "“Are MDCK cells transfected with the human MRP2 gene a good model of the human intestinal mucosa?” (Pharm Res, 2002)", "assay_type_in_all_cases": "functional, cell-based", "key": {"[1]": {"biological_target": "T1, ATP-binding cassette sub-family C member 2 (Homo sapiens, UniProt Q92887)", "T1 sequence (Q92887 whole entry)": "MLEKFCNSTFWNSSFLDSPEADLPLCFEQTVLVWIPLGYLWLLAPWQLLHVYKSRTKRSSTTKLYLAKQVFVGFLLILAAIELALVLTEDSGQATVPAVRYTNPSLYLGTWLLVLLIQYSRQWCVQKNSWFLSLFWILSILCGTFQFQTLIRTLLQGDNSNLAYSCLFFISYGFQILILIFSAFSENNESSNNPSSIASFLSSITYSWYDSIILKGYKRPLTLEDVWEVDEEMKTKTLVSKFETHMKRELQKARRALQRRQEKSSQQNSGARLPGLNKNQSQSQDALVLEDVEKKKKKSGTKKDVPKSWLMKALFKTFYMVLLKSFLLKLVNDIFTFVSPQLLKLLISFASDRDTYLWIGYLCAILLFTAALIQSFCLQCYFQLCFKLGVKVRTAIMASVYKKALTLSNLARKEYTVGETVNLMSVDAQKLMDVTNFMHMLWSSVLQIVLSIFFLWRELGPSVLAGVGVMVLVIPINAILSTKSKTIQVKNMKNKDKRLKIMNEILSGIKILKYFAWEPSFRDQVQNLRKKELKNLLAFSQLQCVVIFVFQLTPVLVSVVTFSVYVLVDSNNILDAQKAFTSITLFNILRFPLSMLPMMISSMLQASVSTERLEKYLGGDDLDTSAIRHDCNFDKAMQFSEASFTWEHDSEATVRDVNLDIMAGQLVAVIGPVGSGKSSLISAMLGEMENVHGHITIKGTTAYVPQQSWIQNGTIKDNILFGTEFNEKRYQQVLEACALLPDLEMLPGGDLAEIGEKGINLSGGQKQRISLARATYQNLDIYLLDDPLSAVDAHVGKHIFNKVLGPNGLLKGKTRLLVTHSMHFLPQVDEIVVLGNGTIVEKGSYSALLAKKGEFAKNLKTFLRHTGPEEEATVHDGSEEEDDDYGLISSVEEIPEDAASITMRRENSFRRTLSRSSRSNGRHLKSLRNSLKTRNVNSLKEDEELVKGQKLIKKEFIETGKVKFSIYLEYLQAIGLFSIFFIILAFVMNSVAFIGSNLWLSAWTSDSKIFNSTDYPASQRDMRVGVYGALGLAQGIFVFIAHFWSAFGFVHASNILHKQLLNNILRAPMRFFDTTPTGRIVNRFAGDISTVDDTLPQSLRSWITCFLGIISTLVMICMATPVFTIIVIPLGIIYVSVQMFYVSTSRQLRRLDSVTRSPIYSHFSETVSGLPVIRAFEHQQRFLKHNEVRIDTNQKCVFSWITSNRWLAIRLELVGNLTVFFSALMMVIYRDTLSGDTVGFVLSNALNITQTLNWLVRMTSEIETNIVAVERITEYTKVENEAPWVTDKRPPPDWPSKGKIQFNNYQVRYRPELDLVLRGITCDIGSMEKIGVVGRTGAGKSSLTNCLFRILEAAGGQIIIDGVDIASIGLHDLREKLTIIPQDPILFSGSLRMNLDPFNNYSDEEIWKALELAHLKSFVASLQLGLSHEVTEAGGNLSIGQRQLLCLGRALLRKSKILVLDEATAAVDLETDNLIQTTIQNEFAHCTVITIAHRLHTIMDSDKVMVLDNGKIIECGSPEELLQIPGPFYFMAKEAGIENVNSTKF", "assay": "TP_TRANSPORTER: inhibition of Vinblastine transepithelial transport (basal to apical) in MRP2-expressing MDCK cells"}, "[2]": {"biological_target": "T1, ATP-binding cassette sub-family C member 2", "assay": "TP_TRANSPORTER: inhibition of Vinblastine transepithelial transport (basal to apical)(GF120918: 12 uM) in MRP2-expressing MDCK cells"}, "[3]": {"biological_target": "T1, ATP-binding cassette sub-family C member 2", "assay": "TP_TRANSPORTER: inhibition of Vinblastine transepithelial transport (basal to apical)(Quinidine: 15 uM) in MRP2-expressing MDCK cells"}}}
{"smiles": "COc1cccc2c1C(=O)c1c(O)c3c(c(O)c1C2=O)C[C@@](O)(C(C)=O)C[C@@H]3O[C@H]1C[C@H](N)[C@H](O)[C@H](C)O1", "note": "[DAUNORUBICIN]", "values": [{"measurement": "Ki", "setting": "[1]", "result": 49.4, "unit": "µM"}]}
{"smiles": "COc1cc2c(cc1OC)CN(CCc1ccc(NC(=O)c3cccc4c(=O)c5cccc(OC)c5[nH]c34)cc1)CC2.Cl", "note": "[ELACRIDAR HYDROCHLORIDE]", "values": [{"measurement": "Ki", "setting": "[2]", "result": "is not an inhibitor [Ki=No inhibition]"}]}
{"smiles": "COc1cc([C@@H]2c3cc4c(cc3[C@@H](O[C@@H]3O[C@@H]5CO[C@@H](C)O[C@H]5[C@H](O)[C@H]3O)[C@H]3COC(=O)[C@H]23)OCO4)cc(OC)c1O", "note": "[ETOPOSIDE]", "values": [{"measurement": "Ki", "setting": "[1]", "result": 756, "unit": "µM"}]}
{"smiles": "CN(C)C(=O)CCSC(SCCC(=O)O)c1cccc(/C=C/c2ccc3ccc(Cl)cc3n2)c1", "note": "(configuration not stated) [MK-571]", "values": [{"measurement": "Ki", "setting": "[1]", "result": 26.4, "unit": "µM"}]}
{"smiles": "C=C[C@H]1CN2CC[C@H]1C[C@@H]2[C@@H](O)c1ccnc2ccc(OC)cc12", "note": "[QUINIDINE]", "values": [{"measurement": "Ki", "setting": "[3]", "result": "is not an inhibitor [Ki=No inhibition]"}]}
{"smiles": "COC(=O)[C@H]1[C@H]2C[C@@H]3c4[nH]c5cc(OC)ccc5c4CCN3C[C@H]2C[C@@H](OC(=O)c2cc(OC)c(OC)c(OC)c2)[C@@H]1OC", "note": "[RESERPINE]", "values": [{"measurement": "Ki", "setting": "[1]", "result": 295, "unit": "µM"}]}
{"smiles": "CC[C@]1(O)C[C@H]2CN(CCc3c([nH]c4ccccc34)[C@@](C(=O)OC)(c3cc4c(cc3OC)N(C=O)[C@H]3[C@@](O)(C(=O)OC)[C@H](OC(C)=O)[C@]5(CC)C=CCN6CC[C@]43[C@@H]65)C2)C1", "note": "[VINCRISTINE]", "values": [{"measurement": "Ki", "setting": "[1]", "result": 802, "unit": "µM"}]}
